Test results published in patent US7696246B2 (Ligand Pharmaceuticals Incorporated, priority 1999, dated 2010).

Assays:
PR [1] = molecular target: T1, PR (Homo sapiens, UniProt P06401); experiment: Co-transfection assay, PR agonist activity (CV-1 cells); format: cell-based; parameters: expressed in transfected cells; host or cells: CV-1 cells; settings: for PR Agonist CV-1 Cells Efficacy (%): percent maximal response relative to reference agonist progesterone
T1 sequence (P06401 1-933): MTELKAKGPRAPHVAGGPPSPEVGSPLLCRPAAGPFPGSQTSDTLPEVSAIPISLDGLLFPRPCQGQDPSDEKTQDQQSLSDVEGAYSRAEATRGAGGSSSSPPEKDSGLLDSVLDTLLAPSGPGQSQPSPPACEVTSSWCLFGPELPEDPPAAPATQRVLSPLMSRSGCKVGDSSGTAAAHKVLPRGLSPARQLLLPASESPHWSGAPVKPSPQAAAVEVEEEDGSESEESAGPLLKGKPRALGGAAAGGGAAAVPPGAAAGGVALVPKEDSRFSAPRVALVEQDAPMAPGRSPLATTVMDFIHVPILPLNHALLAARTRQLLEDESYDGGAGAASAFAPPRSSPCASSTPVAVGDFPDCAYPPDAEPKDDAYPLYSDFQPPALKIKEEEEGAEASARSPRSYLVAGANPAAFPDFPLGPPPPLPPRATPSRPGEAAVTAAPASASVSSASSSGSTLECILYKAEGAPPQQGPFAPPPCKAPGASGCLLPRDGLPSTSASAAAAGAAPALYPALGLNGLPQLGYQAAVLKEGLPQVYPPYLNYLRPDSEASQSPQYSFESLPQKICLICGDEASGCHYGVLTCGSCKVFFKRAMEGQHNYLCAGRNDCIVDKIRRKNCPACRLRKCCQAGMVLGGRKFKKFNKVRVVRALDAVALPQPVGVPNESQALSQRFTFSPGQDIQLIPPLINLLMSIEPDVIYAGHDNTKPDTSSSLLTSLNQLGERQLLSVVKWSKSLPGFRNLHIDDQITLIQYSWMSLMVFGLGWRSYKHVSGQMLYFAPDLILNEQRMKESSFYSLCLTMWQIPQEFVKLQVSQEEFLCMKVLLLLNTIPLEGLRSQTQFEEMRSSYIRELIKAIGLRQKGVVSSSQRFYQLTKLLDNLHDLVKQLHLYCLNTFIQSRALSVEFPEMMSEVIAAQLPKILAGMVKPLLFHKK

PR [2] = molecular target: T1, PR; experiment: PR competitive binding assay; settings: Cheng-Prusoff
Method: (§1) After correcting for non-specific binding, IC50 values were determined. […] The IC50 value was determined graphically from a log-logit plot of the data. The Ki values were determined by application of the Cheng-Prusoff equivuation to the IC50 values, the labeled ligand concentration and the Kd of the labeled ligand.

PR [3] = molecular target: T1, PR; experiment: Co-transfection assay, PR antagonist activity (CV-1 cells, in presence of progesterone); format: cell-based; parameters: expressed in transfected cells; host or cells: CV-1 cells; settings: for PR Antagonist CV-1 Cells Efficacy (%): percent maximal inhibition, progesterone at its EC50
human AR [4] = molecular target: T2, human AR (Homo sapiens, UniProt P10275); experiment: Co-transfection assay, AR antagonist activity (CV-1 cells, in presence of DHT); format: cell-based; settings: for AR Antagonist CV-1 Cells Efficacy (%): percent maximal inhibition, DHT at its EC50; for IC50: read-out: AR Antagonist CV-1 Cells Potency
T2 sequence (P10275 1-920): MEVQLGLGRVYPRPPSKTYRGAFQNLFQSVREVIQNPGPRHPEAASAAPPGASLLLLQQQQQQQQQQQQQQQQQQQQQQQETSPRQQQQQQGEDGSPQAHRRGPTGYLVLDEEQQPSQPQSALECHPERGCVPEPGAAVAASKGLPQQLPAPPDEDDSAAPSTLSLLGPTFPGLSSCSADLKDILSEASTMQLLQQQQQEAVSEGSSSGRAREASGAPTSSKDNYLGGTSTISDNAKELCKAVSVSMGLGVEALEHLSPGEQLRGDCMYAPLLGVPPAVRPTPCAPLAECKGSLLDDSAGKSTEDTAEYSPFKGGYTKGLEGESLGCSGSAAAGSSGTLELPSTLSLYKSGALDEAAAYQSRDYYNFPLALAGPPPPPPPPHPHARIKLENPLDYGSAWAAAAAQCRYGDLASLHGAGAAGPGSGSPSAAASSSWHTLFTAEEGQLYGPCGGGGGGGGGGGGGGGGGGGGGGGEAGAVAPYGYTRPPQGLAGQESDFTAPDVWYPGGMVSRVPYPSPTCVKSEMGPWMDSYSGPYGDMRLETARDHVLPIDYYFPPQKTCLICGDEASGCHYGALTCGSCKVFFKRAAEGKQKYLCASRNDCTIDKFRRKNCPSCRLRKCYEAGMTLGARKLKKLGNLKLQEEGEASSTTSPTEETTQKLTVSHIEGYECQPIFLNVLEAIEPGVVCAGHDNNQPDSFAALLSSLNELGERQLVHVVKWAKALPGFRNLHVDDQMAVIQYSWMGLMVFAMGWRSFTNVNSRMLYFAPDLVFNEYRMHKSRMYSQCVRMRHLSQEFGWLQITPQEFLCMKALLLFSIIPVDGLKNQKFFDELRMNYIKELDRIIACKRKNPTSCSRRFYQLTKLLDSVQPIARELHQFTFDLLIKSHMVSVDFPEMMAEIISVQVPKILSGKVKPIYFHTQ

human AR [5] = molecular target: T2, human AR; experiment: Co-transfection assay, AR agonist activity (CV-1 cells, MTV-LUC reporter); format: cell-based; settings: CV-1 cells; for EC50: agonist potency EC50; for AR Agonist CV-1 Cells Efficacy (%): percent maximal response relative to reference agonist DHT
human AR [6] = molecular target: T2, human AR; experiment: AR whole cell competitive binding assay (COS-1 cells, 3H-DHT); settings: 1 nM 3H-DHT, Cheng-Prusoff
Method: AR Binding: For the whole cell binding assay, COS-1 cells in 96-well microtiter plates containing DMEM-10% FBS were transfected as described above with the following plasmid DNA: pRShAR (2 ng/well), pRS-β-Gal (50 ng/well) and pGEM (48 ngcwell). Six hours after transfection, media was removed, the cells were washed with PBS and fresh media was added. The next day, the media was changed to DMEM-serum free to remove any endogenous ligand that might be complexed with the receptor in the cells.
Three replicates were used for each sample. […] The remaining media was removed, the cells were washed three times with PBS to remove unbound ligand, and cells were lysed with a Triton X-100-based buffer.
For the saturation analyses, the difference between the total binding and the nonspecific binding, normalized by the β-Gal rate, was defined as specific binding. […] The Ki values were determined by application of the Cheng-Prusoff equation to the IC50 values, where:
as §1

SMILES	EC50 (PR [1]; agonist potency EC50)	PR Agonist CV-1 Cells Efficacy (%) (PR [1])	Ki (PR [2])	IC50 (PR [3])	PR Antagonist CV-1 Cells Efficacy (%) (PR [3])	AR Antagonist CV-1 Cells Efficacy (%) (human AR [4])	IC50 (human AR [4])	EC50 (human AR [5])	AR Agonist CV-1 Cells Efficacy (%) (human AR [5])	Ki (human AR [6])
FC(F)(F)c1cc(=S)[nH]c2ccc(C3CCCCC3)cc12 [Compound 631, 6-Cyclohexyl-4-trifluoromethyl-2(1H)-thioquinolinone]	> 10000 nM	na (na = not active (i.e. efficacy of <20 and potency of >10,000))	136 nM	796 nM	75%					
CN(C)c1ccc([C@H]2C[C@]3(C)[C@@H](CC[C@]3(O)CCCO)[C@@H]3CCC4=CC(=O)CCC4=C32)cc1 [ZK299, reference compound]		na (na = not active (i.e. efficacy of <20 and potency of >10,000))			95%					
CC(=O)[C@H]1CC[C@H]2[C@@H]3CCC4=CC(=O)CC[C@]4(C)[C@H]3CC[C@]12C [Prog, progesterone, reference compound]		100%			na (na = not active (i.e. efficacy of <20 and potency of >10,000))					
CC1COC(C(F)(F)F)N1c1ccc2[nH]c(=O)cc(C(F)(F)F)c2c1 (racemic) [Compound 352, (±)-6-(2-Trifluoromethyl-5-trans-methyl-1-oxazolidino)-4-trifluoromethyl-2(1H)-quinolinone]						na (na = not active (i.e. efficacy of <20 and potency of >10,000))	> 10000 nM	12 nM	113%	25 nM
CCCN(CC(F)(F)F)c1ccc2[nH]c(=O)cc(C)c2c1 [Compound 374, 6-(N-Propyl-N-2,2,2-trifluoroethyl)amino-4-methyl-2(1H)-quinolinone]						na (na = not active (i.e. efficacy of <20 and potency of >10,000))	> 10000 nM	2.2 nM	77%	6.2 nM
O=c1cc(C(F)(F)F)c2cc(C3=CCCCCC3)ccc2[nH]1 [Compound 633, 6-Cycloheptenyl-4-trifluoromethyl-2(1H)-quinolinone]						51%	7.5 nM	38 nM	33%	97 nM
Cn1c(=O)cc(C(F)(F)F)c2cc(N(CC(F)(F)F)CC(F)(F)F)ccc21 [Compound 297, 1-Methyl-6-(bis-2,2,2-trifluoroethyl)amino-4-trifluoromethyl-2(1H)-quinolinone]						43%	3.2 nM	22 nM	43%	58 nM
C=CCN(CC1CC1)c1ccc2[nH]c(=O)cc(C(F)(F)F)c2c1 [Compound 285, 6-(N-Allyl-N-cyclopropylmethyl)amino-4-trifluoromethyl-2(1H)-quinolinone]						na (na = not active (i.e. efficacy of <20 and potency of >10,000))	> 10000 nM	1 nM	111%	6.2 nM
O=c1cc(C(F)(F)F)c2cc(C(O)(c3ccccc3)c3ccccc3)ccc2[nH]1 [Compound 659, 6-(1-Hydroxy-1,1-diphenyl)methyl-4-trifluoromethyl-2(1H)-quinolinone]						70%	44 nM	> 10000 nM		40 nM
CCC(CC)c1ccc2[nH]c(=O)cc(C(F)(F)F)c2c1 [Compound 647, 6-(1-Ethylpropyl)-4-trifluoromethyl-2(1H)-quinolinone]						64%	31 nM	233 nM	42%	81 nM
CC1CCCCN1c1ccc2[nH]c(=O)cc(C(F)(F)F)c2c1 (racemic) [Compound 314, (±)-6-(2-Methyl-1-piperidino)-4-trifluoromethyl-2(1H)-quinolinone]						na (na = not active (i.e. efficacy of <20 and potency of >10,000))	> 10000 nM	5.3 nM	83%	4.6 nM
CSCC1CCCCN1c1ccc2[nH]c(=O)cc(C(F)(F)F)c2c1 (racemic) [Compound 426, (±)-6-(2-Thiomethoxymethyl-1-piperidino)-4-trifluoromethyl-2(1H)-quinolinone]						na (na = not active (i.e. efficacy of <20 and potency of >10,000))	> 10000 nM	45 nM	93%	28 nM
O=c1cc(C(F)(F)F)c2cc(N3CCCCC3CCOCc3ccc(C(F)(F)F)cc3)ccc2[nH]1 (racemic) [Compound 449, (±)-6-(2-(4-Trifluoromethyl)benzyloxyethyl-1-piperidino)-4-trifluoromethyl-2(1H)-quinolinone]						na (na = not active (i.e. efficacy of <20 and potency of >10,000))	> 10000 nM	16 nM	83%	8.4 nM
O=c1cc(C(F)(F)F)c2cc(N3CCc4ccccc43)ccc2[nH]1 [Compound 347, 6-(1-Indolino)-4-trifluoromethyl-2(1H)-quinolinone]						89%	59 nM	> 10000 nM		970 nM
Cc1cccc(-c2ccc3[nH]c(=O)cc(C(F)(F)F)c3c2)c1 [Compound 738, 4-Trifluoromethyl-6-(3-methylphenyl)-2(1H)-quinolinone]						91%	27 nM	> 10000 nM		> 1000 nM
Cn1c(=O)cc(C(F)(F)F)c2ccc(NCC(F)(F)F)cc21 [Compound 532, 1-Methyl-7-(2,2,2-trifluoromethyl)amino-4-trifluoromethyl-2(1H)-quinolinone]						85%	73 nM	> 10000 nM		159 nM
O=c1cc(C(F)(F)F)c2cc(N3CCCCCC3)ccc2[nH]1 [Compound 330, 6-(1-Azepano)-4-trifluoromethyl-2(1H)-quinolinone]						na (na = not active (i.e. efficacy of <20 and potency of >10,000))	> 10000 nM	3.9 nM	81%	55 nM
CC(C)c1ccc2[nH]c(=O)cc(C(F)(F)F)c2c1 [Compound 615, 6-Isopropyl-4-trifluoromethyl-2(1H)-quinolinone]						82%	48 nM	2800 nM	23%	56 nM
O=c1cc(C(F)(F)F)c2cc(C3=CCCC3)ccc2[nH]1 [Compound 632, 6-Cyclopentenyl-4-trifluoromethyl-2(1H)-quinolinone]						75%	36 nM	> 10000 nM		112 nM
